This is an account of results in patent publication US20210261636A1, “NEOANTIGENS EXPRESSED IN MULTIPLE MYELOMA AND THEIR USES” (Janssen Biotech, Inc., priority 2020, published 2021).

The subject of one assay is CD8+ T cells. The experiment in a line: Exogenous autologous healthy donor restimulation assay, TNFα and IFNγ production by CD8+ T cells. Format: cell-based, human. Details: Frequency (TNFα+ IFNγ+ CD8 T cells): unit not given here. The following applies: for Fold change (CD8+) vs. DMSO: maximum CD8+ T-cell response (TNFα and IFNγ); for Fold change (CD8+) vs. DMSO / Frequency (TNFα+ IFNγ+ CD8 T cells): donor independent, peptide pool 10 μg/mL, healthy donors; for Frequency (TNFα+ IFNγ+ CD8 T cells): maximum CD8+ T-cell response; for Immunogenic (yes/no): positive if CD8+ and/or CD4+ double positive TNFα/IFNγ frequency >=3-fold over DMSO and at least 0.01%. The method in brief:
(§1)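 CD1c+ DCs from healthy donor PBMCs pulsed 2 h with 15-mer overlapping neoantigen peptide pools (10 μg/mL), irradiated 50 Gy, then co-cultured 12 days with autologous CD3+ T cells plus IL-15/IL-2. Restimulated day 11 with same pools, overnight with protein inhibitor; intracellular TNFα/IFNγ by flow. Positive: ≥3-fold over DMSO and ≥0.01% double-positive.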

Another assay has as its system CD4+ T cells. The assay can be described thus: Exogenous autologous healthy donor restimulation assay, TNFα and IFNγ production by CD4+ T cells. Details: Frequency (TNFα+ IFNγ+ CD4 T cells): unit not given here. Conditions: donor independent, peptide pool 10 μg/mL, healthy donors; for Fold change (CD4+) vs. DMSO: maximum CD4+ T-cell response (TNFα and IFNγ); for Frequency (TNFα+ IFNγ+ CD4 T cells): maximum CD4+ T-cell response. The format is cell-based, human. The method in brief: as §1

Take “SRAPIKMSVLGQGHSRCLLHCLCLVAPMAFPVRLRVPCGG [AS16, alternative splicing, CAMSAP1]”: in the assay with CD8+ T cells, the “Fold change (CD8+) vs. DMSO” value came to 8200, the “Frequency (TNFα+ IFNγ+ CD8 T cells)” value was determined as 0.82 and the “Immunogenic (yes/no)” value is “Yes”. In the assay with CD4+ T cells, the “Fold change (CD4+) vs. DMSO” value was found to be 15.062 and the “Frequency (TNFα+ IFNγ+ CD4 T cells)” value is 0.011.
With “SSLQEHRKLLS [AS52, alternative splicing, PRDM5]”, in the assay on CD8+ T cells, the “Fold change (CD8+) vs. DMSO” value was 12.72, the “Frequency (TNFα+ IFNγ+ CD8 T cells)” value amounted to 0.18 and the “Immunogenic (yes/no)” value is “Yes”. Besides, in the assay on CD4+ T cells, the “Fold change (CD4+) vs. DMSO” value worked out at 1.9 and the “Frequency (TNFα+ IFNγ+ CD4 T cells)” value is recorded as 0.012.
On the same counts, the results for “SSVTTHSSGNLRESPIYH [FUS32, gene fusion GANC-> CAPN3]” are 12.04, 0.018, “Yes”, 3.08 and 0.008.
As for “TAILFTRQQSKALPSLGITNRHGFWAGQGNTVMHGRDSDGKQVKGTVVILAQGAFHQ [AS109, alternative splicing, ADAMTS15]”, in the assay with CD8+ T cells, the “Fold change (CD8+) vs. DMSO” value worked out at 4.15, the “Frequency (TNFα+ IFNγ+ CD8 T cells)” value stood at 0.019 and the “Immunogenic (yes/no)” value is reported as “Yes”. In the assay with CD4+ T cells, the “Fold change (CD4+) vs. DMSO” value is on record as 42.23 and the “Frequency (TNFα+ IFNγ+ CD4 T cells)” value is 0.064.
On the same counts, the results for “TSTSPKFPVFIFRLVCWVRTELVLR [AS47, alternative splicing, NRG3]” are 53.5, 0.25, “Yes”, 1.907 and 0.011.
For the molecule “TVPASQKLSCSLDPKHLRQFHL [AS30, alternative splicing, BLNK]”, in the assay on CD8+ T cells, the “Fold change (CD8+) vs. DMSO” value was determined as 13.86, the “Frequency (TNFα+ IFNγ+ CD8 T cells)” value was 0.082 and the “Immunogenic (yes/no)” value was “Yes”. Also, in the assay on CD4+ T cells, the “Fold change (CD4+) vs. DMSO” value turned out to be 2.23 and the “Frequency (TNFα+ IFNγ+ CD4 T cells)” value stood at 0.012.
For the molecule “VAPSGLYYCG [FUS34, gene fusion CLN6-> CALML4]”, in the assay on CD8+ T cells, the “Fold change (CD8+) vs. DMSO” value is given as 8.7, the “Frequency (TNFα+ IFNγ+ CD8 T cells)” value is 0.013 and the “Immunogenic (yes/no)” value was “Yes”. For the same molecule, in the assay on CD4+ T cells, the “Fold change (CD4+) vs. DMSO” value came to 8.33 and the “Frequency (TNFα+ IFNγ+ CD4 T cells)” value is on record as 0.015.
As for “VAPSQSRQEECWRHKMSW [AS42, alternative splicing, LARP1B]”, in the assay on CD8+ T cells, the “Fold change (CD8+) vs. DMSO” value stood at 40, the “Frequency (TNFα+ IFNγ+ CD8 T cells)” value is on record as 0.076 and the “Immunogenic (yes/no)” value was “Yes”. Also, in the assay with CD4+ T cells, the “Fold change (CD4+) vs. DMSO” value stood at 3.83 and the “Frequency (TNFα+ IFNγ+ CD4 T cells)” value is given as 0.025.
Regarding “VEDEEKKEAGTHFIHLTGTTVSAGVPEEMPATTLRREVF [AS108, alternative splicing, ACIN1]”, in the assay on CD8+ T cells, the “Fold change (CD8+) vs. DMSO” value is recorded as 1406.07, the “Frequency (TNFα+ IFNγ+ CD8 T cells)” value worked out at 12.5 and the “Immunogenic (yes/no)” value is “Yes”. Moreover, in the assay with CD4+ T cells, the “Fold change (CD4+) vs. DMSO” value amounted to 179.31 and the “Frequency (TNFα+ IFNγ+ CD4 T cells)” value came out at 1.06.
As to “VHLDFSSAEMGFPHAAQANVELLGSSDLLT [AS116, alternative splicing, FCRL5]”, in the assay with CD8+ T cells, the “Fold change (CD8+) vs. DMSO” value is 192.71, the “Frequency (TNFα+ IFNγ+ CD8 T cells)” value was 1.42 and the “Immunogenic (yes/no)” value is recorded as “Yes”. Moreover, in the assay on CD4+ T cells, the “Fold change (CD4+) vs. DMSO” value came to 6.32 and the “Frequency (TNFα+ IFNγ+ CD4 T cells)” value is given as 0.076.
As for “VYYLYKNVAYKGSDID [AS86, alternative splicing, ATP10B]”, in the assay with CD8+ T cells, the “Fold change (CD8+) vs. DMSO” value turned out to be 2.7, the “Frequency (TNFα+ IFNγ+ CD8 T cells)” value is on record as 0.018 and the “Immunogenic (yes/no)” value is reported as “Yes”. In addition, in the assay with CD4+ T cells, the “Fold change (CD4+) vs. DMSO” value came to 12.54 and the “Frequency (TNFα+ IFNγ+ CD4 T cells)” value came out at 0.019.
With “WLLRTWERADSGL [AS123, alternative splicing, PCNX3]”, in the assay on CD8+ T cells, the “Fold change (CD8+) vs. DMSO” value was found to be 5.371, the “Frequency (TNFα+ IFNγ+ CD8 T cells)” value was 0.046 and the “Immunogenic (yes/no)” value is “No”. Besides, in the assay with CD4+ T cells, the “Fold change (CD4+) vs. DMSO” value stood at 2.25 and the “Frequency (TNFα+ IFNγ+ CD4 T cells)” value is on record as 0.05.
Consider “WTRPEKQELNSSCCSLIL [AS120, alternative splicing, NCAM1]”, for which, in the assay with CD8+ T cells, the “Fold change (CD8+) vs. DMSO” value amounted to 13.03, the “Frequency (TNFα+ IFNγ+ CD8 T cells)” value amounted to 0.24 and the “Immunogenic (yes/no)” value is listed as “Yes”. In the assay on CD4+ T cells, the “Fold change (CD4+) vs. DMSO” value is reported as 3.71 and the “Frequency (TNFα+ IFNγ+ CD4 T cells)” value is 0.018.
Consider “YECTGCKTSFPHRSQS [FUS46, gene fusion GCNA-> LOC101059915]”, for which, in the assay on CD8+ T cells, the “Fold change (CD8+) vs. DMSO” value is listed as 143.71, the “Frequency (TNFα+ IFNγ+ CD8 T cells)” value came out at 1.33 and the “Immunogenic (yes/no)” value was “Yes”. In the assay with CD4+ T cells, the “Fold change (CD4+) vs. DMSO” value is given as 9.3 and the “Frequency (TNFα+ IFNγ+ CD4 T cells)” value is recorded as 0.017.
For “YGVYVINQKGHSGCIWSMDGEGRLETAWPVWKRGRCPGKRR [AS15, alternative splicing, B4GALT2]”, in the assay on CD8+ T cells, the “Fold change (CD8+) vs. DMSO” value came to 290, the “Frequency (TNFα+ IFNγ+ CD8 T cells)” value is listed as 0.029 and the “Immunogenic (yes/no)” value is on record as “Yes”. Further, in the assay on CD4+ T cells, the “Fold change (CD4+) vs. DMSO” value turned out to be 2469.136 and the “Frequency (TNFα+ IFNγ+ CD4 T cells)” value came out at 0.9.

B1: TQRLPGHKVSNSCMTGLVLTFTKRDPFHKPVTWCGQLADVRQCMFHSIRERAHPLQRALATLNFFFVSFYTALYLTHPLLTLQTWEVVVTVCFSCWELCVPCDVLRRTCRGQR (peptide)
chain: TQRLPGHKVSNSCMTGLVLTFTKRDPFHKPVTWCGQLADVRQCMFHSIRERAHPLQRALATLNFFFVSFYTALYLTHPLLTLQTWEVVVTVCFSCWELCVPCDVLRRTCRGQR
notes: alternative splicing, BTBD3
With B1, in the assay with CD8+ T cells, the “Fold change (CD8+) vs. DMSO” value is on record as 17.3, the “Frequency (TNFα+ IFNγ+ CD8 T cells)” value came out at 0.77 and the “Immunogenic (yes/no)” value is recorded as “Yes”. In the assay with CD4+ T cells, the “Fold change (CD4+) vs. DMSO” value was 7.26 and the “Frequency (TNFα+ IFNγ+ CD4 T cells)” value is 0.025.

B2: RQREVVDLVSPREPSRDRRAGGGDLAARPTGRASVWLLGVSVCTAVCRVSCCAGVSCFLFTGEEGPGYACSESWNSEGRPKWEAIVERTCDMGPYNGMCLQG (peptide)
chain: RQREVVDLVSPREPSRDRRAGGGDLAARPTGRASVWLLGVSVCTAVCRVSCCAGVSCFLFTGEEGPGYACSESWNSEGRPKWEAIVERTCDMGPYNGMCLQG
notes: alternative splicing, CTHRC1
For the molecule B2, in the assay on CD8+ T cells, the “Fold change (CD8+) vs. DMSO” value turned out to be 2700, the “Frequency (TNFα+ IFNγ+ CD8 T cells)” value was 0.27 and the “Immunogenic (yes/no)” value is reported as “Yes”. Moreover, in the assay with CD4+ T cells, the “Fold change (CD4+) vs. DMSO” value is 57.613 and the “Frequency (TNFα+ IFNγ+ CD4 T cells)” value turned out to be 0.072.

B3: PPTAAASQVRSPTTATGTAAAGSLRAQTSSRATTESTRATGHSSAICAIVPSRAPITWRCT (peptide)
chain: PPTAAASQVRSPTTATGTAAAGSLRAQTSSRATTESTRATGHSSAICAIVPSRAPITWRCT
notes: gene fusion FOSB-> KLF2
In the case of B3, in the assay with CD8+ T cells, the “Fold change (CD8+) vs. DMSO” value turned out to be 37.46, the “Frequency (TNFα+ IFNγ+ CD8 T cells)” value turned out to be 0.056 and the “Immunogenic (yes/no)” value is on record as “Yes”. Moreover, in the assay on CD4+ T cells, the “Fold change (CD4+) vs. DMSO” value is on record as 6.84 and the “Frequency (TNFα+ IFNγ+ CD4 T cells)” value was 0.002.
